According to paper PMC11200626, “In Vitro Biological Activities of Hesperidin-Related Compounds with Different Solubility” (Antioxidants, 2024):
Values after ≈ are worked out from the molar mass of the structure shown. Read-outs that look alike come from different tables or passages of the source. One block for each compound: values may come before it.

Legend:
[1] = DPPH radical scavenging assay; conditions: for IC50: 0.2 mM DPPH in ethanol, 37 °C, 30 min, read-out: IC50 representing 50% of DPPH radical scavenging
Description: Measurements of DPPH radical scavenging activity were performed based on the method described by Ratha et al. and Blois, with slight modifications. Briefly, DPPH was dissolved in absolute ethanol to 0.2 mM, and 20 μL of the diluted sample was added to 180 μL of the DPPH solution. The reaction was performed at 37 °C for 30 min to stabilize the color, and the absorbance of the reaction solution was measured at 520 nm using a microplate reader (Epoch2, Bio Tek, Winooski, VT, USA). The DPPH radical scavenging activity was calculated using the following formula. Ascorbic acid was used as a positive control. DPPH radical scavenging activity%=A−B/A×100 where A is the absorbance of the reaction solution without a sample, and B is the absorbance of the reaction solution with a sample.

[2] = β-carotene bleaching assay; conditions: for IC50: β-carotene/linoleic acid emulsion, 50 °C, 2 h
Description: Measurements of the inhibition activity of β-carotene oxidation were performed using the method described by Wanasundara et al. and Hidalgo et al. with slight modifications. Briefly, a mixture of β-carotene and linoleic acid was prepared by dissolving 0.2 mg of β-carotene in 1 mL of chloroform and mixing this solution with 200 mg of Tween 20 containing 20 mg of linoleic acid. After removing the chloroform from the mixture in a rotary evaporator at 50 °C, 100 mL of deionized water was added to prepare an emulsion. The diluted sample (100 μL) was mixed with 900 μL of the prepared emulsion and the absorbance was measured immediately at 470 nm. Then, after a reaction at 50 °C for 2 h, the absorbance was measured again at 470 nm. Antioxidant activity was evaluated as a percent of oxidation inhibition compared to the untreated group sample. As a positive control, BHT (butylated hydroxytoluene) was used in the experiment. β−Carotene bleaching inhibition activity%=A0−At−(B0−Bt)/A0−At×100 where A0 is the initial absorbance without a sample, At is the final absorbance without a sample, B0 is the initial absorbance with a sample, and Bt is the final absorbance with a sample.

IL-6 in HaCaT cells = test: Cellular IL-6 levels after UV irradiation (ELISA); type: cell-based, Human; conditions: UV 10 mJ/cm^2, 24 h, tested concentrations up to 25 μM
Description: (§1) Cellular levels of TNF-α and IL-6 were measured in HaCaT cells after the addition of various concentrations of HTL, HT, HD, and HDG under UV irradiation. The cell culture and sample treatment conditions for the TNF-α and IL-6 assay were the same as those used in the NO assay. The TNF-α and IL-6 contents in the media were measured, respectively, using commercial detection kits according to the manufacturer’s protocols. The absorbance was measured at 450 nm in the same microplate reader as above.

[3] = n-octanol–water partition coefficient; type: physicochemical; conditions: 500 μM sample, 20 h at 20 °C, HPLC, mean ± SD (n = 3); for logP at 20 h: n-octanol/water, read-out: Log Po/w (n-octanol–water partition coefficient) (converted)
Description: The hydrophobic/hydrophilic properties were investigated by measuring octanol–water partition coefficients. Octanol–water partition coefficients of the four hesperidin-related compounds were determined by the method described in the previous study. Briefly, samples (500 μM) were mixed in deionized water with an equal volume of n-octanol, and then the mixture was kept for 20 h at 20 °C in the dark to reach partition equilibrium. The concentration of each sample was determined by HPLC, and the partition coefficient (log P) was calculated as the ratio of the concentration in the n-octanol phase to the concentration in the water phase. Partition coefficient LogP=LogCoctanol/[C]water where [C]n-octanol is the concentration of a compound in the n-octanol phase, and [C]water is the concentration of a compound in the water phase.

[4] = Water solubility (in words); type: physicochemical
Candida albicans = test: MIC, broth micro-dilution with resazurin; type: cell-based, Candida albicans (KCCM 50235); conditions: read-out: MIC Value
Description: (§2) Antimicrobial capacity was evaluated against some bacteria and yeast known to be major skin resident microorganisms. Staphylococcus aureus (KCCM 11335) was cultivated on TS agar, and Cutibacterium acnes (KCTC 25526) was cultivated on RCM agar in an anaerobic jar (Rec. Jar, Mitsubishi Gas Chemical Co., Tokyo, Japan) with anaerobic gas packs. Candida albicans (KCCM 50235) was cultivated on YM agar, and Malassezia furfur (KCTC 7545) was cultivated on MLN agar. All the microbes were cultivated at 35 °C.
(§3) For the determination of MIC, S. aureus was cultivated in TS broth, and C. acnes was cultivated in RCM medium in an anaerobic jar with gentle shaking. C. albicans was cultivated in an RPMI-1640 medium supplemented with L-glutamine, and M. furfur was cultivated in an RPMI medium supplemented with 2% oleic acid, 0.5% glycerol, 0.5% Tween 60, and 0.2% sodium bicarbonate. All the microbes were cultivated at 35 °C, and the inoculum size for MICs was 5 × 10^5 cells/mL for S. aureus, and 1.5 × 10^5 cells/mL for C. acnes, C. albicans, and M. furfur, respectively.
MIC values were determined by the broth micro-dilution method with some modifications. Briefly, the culture broth of each microorganism was diluted with the same medium. Two-fold serial dilutions of HTL, HT, HD, and HDG ranging from 4000 to 62.5 μg/mL (depending on the microorganism tested) were performed in 96 well plates. After incubation for sufficient growth, the resazurin solution (1 mg/mL, 10 µL) was added to each well and the plate was incubated for 2 h. The MIC value for a microorganism was determined as the lowest concentration of the tested compound that prevented the color change of resazurin (blue to pink).

TNF-α in HaCaT cells = test: Cellular TNF-α levels after UV irradiation (ELISA); type: cell-based, Human; conditions: UV 10 mJ/cm^2, 24 h, tested concentrations up to 25 μM
Description: as §1

HaCaT cells = test: MTT cell viability / cytotoxicity assay; conditions: 24 h, tested 12.5–200 μM
Description: The keratinocyte HaCaT cell line was obtained from AddexBio (SanDiego, CA, USA). The cells were maintained in DMEM supplemented with 10% FBS and 1% of penicillin/streptomycin under a humidified atmosphere condition of 5% CO2 at 37 °C. The cytotoxicity of HD and the related compounds was assessed by MTT assay. Cells were seeded in 96-well plates at a density of 2 × 10^4 cells/well and incubated for 24 h at 37 °C. Each sample of HTL, HT, HD, and HDG was dissolved in DMSO as a stock solution (0.1 M). […] After incubation for 24 h, the culture medium was removed and MTT solution (100 μL) was added to the well. The mixture was kept at 37 °C for 2 h, then DMSO was added to the reaction mixture and the absorbance at 540 nm was measured in a microplate reader (Epoch2, Bio Tek, Winooski, VT, USA). Cell viability was calculated as a percentage of difference in absorbance between control and test samples.

[5] = tested on: nitric oxide (NO) in HaCaT cells; test: Cellular NO levels after UV irradiation; type: cell-based; conditions: UV 10 mJ/cm^2, 24 h; for NO levels (in words): tested up to 50 μM; for NO production (in words): at 25 μM
Description: Cellular NO levels were determined as an inflammatory intermediate in HaCaT cells. […] Then, cells with or without samples were irradiate with 10 mJ/cm^2 of UV rays at 302 nm using a UV irradiator (UV Crosslinker CL-1000M, UVP, Upland, CA, USA). […] After 24 h incubation, the NO content in the media was measured using an NO assay kit according to the manufacturer’s experimental protocol. The absorbance was measured at 540 nm in the same microplate reader as above.

Cutibacterium acnes = test: MIC, broth micro-dilution with resazurin; type: cell-based, Cutibacterium acnes (KCTC 25526); conditions: RCM medium, anaerobic, 35 °C, tested up to 4000 μg/mL
Description: as §2, §3
(§4) MIC values were determined by the broth micro-dilution method with some modifications. Briefly, the culture broth of each microorganism was diluted with the same medium. […] The MIC value for a microorganism was determined as the lowest concentration of the tested compound that prevented the color change of resazurin (blue to pink).

Staphylococcus aureus = test: MIC, broth micro-dilution with resazurin; type: cell-based, Staphylococcus aureus (KCCM 11335); conditions: TS broth, 35 °C, tested up to 4000 μg/mL
Description: as §2, §3, §4

Malassezia furfur = test: MIC, broth micro-dilution with resazurin; type: cell-based, Malassezia furfur (KCTC 7545); conditions: supplemented RPMI, 35 °C, tested up to 4000 μg/mL
Description: as §2, §3, §4

[6] = RPMI-1640, 35 °C, tested up to 4000 μg/mL

Structure (SMILES): O=C1O[C@H]([C@@H](O)CO)C(O)=C1O [Ascorbic acid, reference compound]
DPPH radical scavenging activity ([1]; at a concentration of 50 μM, positive control): 48.74%

Structure (SMILES): Cc1cc(C(C)(C)C)c(O)c(C(C)(C)C)c1 [BHT, butylated hydroxytoluene, reference compound]
β-carotene bleaching inhibitory activity ([2]; at a concentration of 25 μM, positive control): 47.08%

Structure (SMILES): COc1ccc(C2CC(=O)c3c(O)cc(O[C@@H]4O[C@H](CO[C@@H]5O[C@@H](C)[C@H](O)[C@@H](O)[C@H]5O)[C@@H](O)[C@H](O)[C@H]4O)cc3O2)cc1O (stereo partly shown) [HD, hesperetin 7-rutinoside]
effect on IL-6 production (in words) (IL-6 in HaCaT cells): Drastic effects were not observed
logP at 20 h [3]: 2.13 ± 0.03
water solubility (in words) [4]: poorly soluble in water
MIC (Candida albicans): 2000 µg/mL (≈ 3280 µM)
effect on TNF-α production (in words) (TNF-α in HaCaT cells): Drastic effects were not observed
concentration showing cytotoxic effects / cell death (HaCaT cells): 100~200 μM
IC50 [1]: 1409 ± 3.43 µM
IC50 [2]: 260.8 ± 2.55 µM
NO levels (in words) [5]: reduced NO levels at higher concentrations

logP at 20 h [3]: -3.45
water solubility (in words) [4]: highly soluble in water
MIC (Candida albicans; [6]): 2000 µg/mL (≈ 2590 µM)
IC50 [1]: 1408 ± 3.73 µM
IC50 [2]: 267 ± 2.69 µM
Structure (SMILES): COc1ccc(C2CC(=O)c3c(O)cc(O[C@@H]4O[C@H](CO[C@@H]5O[C@@H](C)[C@H](O)[C@@H](O)[C@H]5O)[C@@H](O[C@H]5O[C@H](CO)[C@@H](O)[C@H](O)[C@H]5O)[C@H](O)[C@H]4O)cc3O2)cc1O (stereo partly shown) [HDG, hesperidin glucoside]
effect on IL-6 production (in words) (IL-6 in HaCaT cells): Drastic effects were not observed
effect on TNF-α production (in words) (TNF-α in HaCaT cells): Drastic effects were not observed
concentration showing cytotoxic effects / cell death (HaCaT cells): > 200 µM
cytotoxicity (in words) (HaCaT cells): much less cytotoxicity than the other compounds
NO levels (in words) [5]: reduced NO levels at higher concentrations

Structure (SMILES): COc1ccc([C@@H]2CC(=O)c3c(O)cc(O)cc3O2)cc1O [HT, hesperetin]
logP at 20 h [3]: 2.59
MIC (Cutibacterium acnes): 1000 µg/mL (≈ 3310 µM)
water solubility (in words) [4]: hardly soluble in water
MIC (Candida albicans; [6]): 500 µg/mL (≈ 1650 µM)
concentration showing cytotoxic effects / cell death (HaCaT cells): 100~200 μM
MIC (Staphylococcus aureus): 2000 µg/mL (≈ 6620 µM)
IC50 [1]: 893.1 ± 1.67 µM
IC50 [2]: 110 ± 3.74 µM
NO production (in words) [5]: markedly decreased

Structure (SMILES): CCCCCCCCCCCC(=O)Oc1cc(O)c2c(c1)OC(c1ccc(OC)c(O)c1)CC2=O (stereo not shown) [HTL, hesperetin laurate]
effect on IL-6 production (in words) (IL-6 in HaCaT cells): highest reducing effect
Log Po/w (n-octanol–water partition coefficient) [3]: 7.08 ± 0.06
logP at 20 h [3]: 7.28 ± 0.06
MIC (Malassezia furfur): 1000 µg/mL (≈ 2060 µM)
MIC (Cutibacterium acnes): 1000 µg/mL (≈ 2060 µM)
water solubility (in words) [4]: extremely insoluble in water
MIC (Candida albicans; [6]): 250 µg/mL (≈ 516 µM)
effect on TNF-α production (in words) (TNF-α in HaCaT cells): highest reducing effect
cytotoxicity (in words) (HaCaT cells): induced cell death at relatively low concentrations
MIC (Staphylococcus aureus): 2000 µg/mL (≈ 4130 µM)
IC50 [1]: 899.1 ± 2.52 µM
IC50 [2]: 105 ± 2.01 µM
NO production (in words) [5]: markedly decreased
